Data published in paper PMC9049938 (2020).

Tests used:
Experiment in all cases: BLI
[1] = tested on: N59a (DNA, aptamer) CCACCAGGCCAAACACGACCCCAAACA; conditions: 150 mM NaCl, 2 mM MgCl2, 50 mM Tris-HCl pH 7.5
[2] = tested on: N11 (DNA, aptamer) GAGGCAGCACTTCACACGATCGGACCCAAACTTTACCTTACCCCCATCTGCGTAATGACTGTAGTGATG; conditions: 150 mM NaCl, 2 mM MgCl2; 50 mM Tris-HCl pH 7.5
[3] = tested on: N16 (DNA, aptamer) GAGGCAGCACTTCACACGATATTTGGGGATCAGCCAGGTCAGTGCCACTGCGTAATGACTGTAGTGATG; conditions: 150 mM NaCl, 2 mM MgCl2; 50 mM Tris-HCl pH 7.5
[4] = tested on: N50 (DNA, aptamer) GAGGCAGCACTTCACACGATCGTCCCTGCCCCTGCCTCCTTTCTATGCTGCGTAATGACTGTAGTGATG; conditions: 150 mM NaCl, 2 mM MgCl2; 50 mM Tris-HCl pH 7.5
[5] = tested on: N59 (DNA, aptamer) GAGGCAGCACTTCACACGATCCACCAGGCCAAACACGACCCCAAACACTGCGTAATGACTGTAGTGATG; conditions: 150 mM NaCl, 2 mM MgCl2; 50 mM Tris-HCl pH 7.5
[6] = tested on: N41 (DNA, aptamer) GAGGCAGCACTTCACACGATCCCCCCCACACTCTTCCAACCCCCTCTCTGCGTAATGACTGTAGTGATG; conditions: 150 mM NaCl, 2 mM MgCl2; 50 mM Tris-HCl pH 7.5

Row | Compound | KD [1] [µM] | KD [2] [µM] | KD [3] [µM] | KD [4] [µM] | KD [5] [µM] | KD [6] [µM] | KD ([1]; Table S3 prints 64 nM) [µM]
1 | C=C1[C@@H](O)[C@@H]2O[C@]3(CC[C@H](/C=C/[C@@H](C)[C@@H]4CC(C)=C[C@@]5(O[C@H](C[C@@](C)(O)C(=O)O)CC[C@H]5O)O4)O3)CC[C@H]2O[C@@H]1[C@@H](O)C[C@H](C)[C@H]1O[C@@]2(CCCCO2)CC[C@H]1C | 30.5 |  |  |  |  |  | 
2 | C=C1[C@@H](O)[C@@H]2O[C@]3(CC[C@H](/C=C/[C@@H](C)[C@@H]4CC(C)=C[C@@]5(O[C@H](C[C@@](C)(O)C(=O)O)CC[C@H]5O)O4)O3)CC[C@H]2O[C@@H]1[C@@H](O)C[C@H](C)[C@H]1O[C@@]2(CC[C@H]1C)OCCC[C@H]2C |  | 0.498 | 0.729 | 2.57 | 0.17 | 1890 | 0.064
